Experimental data as given in US20200024278A1, “COMPOSITION COMPRISING ANTIBIOTIC COMPOUND AND AN HETEROCYCLIC COMPOUND AND THEIR USE IN PREVENTING OR TREATING BACTERIAL INFECTIONS” (MUTABILIS, priority 2016, published 2020).

Assays:
Assay in all cases: MIC, broth microdilution (CLSI), substance alone or ATB combined with compound at 4 or 8 μg/mL
[1] = test system: SAU 29213; type: cell-based, S. aureus; details: SAU 29213
Protocol: (§1) Compounds of the present invention were assessed against genotyped bacterial strains alone or in combination with an antibacterial. In the assays, MICs of said compounds or combination of antibiotics with fixed concentrations of said compounds (4 or 8 μg/mL) were determined by the broth microdilution method according to the Clinical Laboratory Standards Institute (CLSI-M7-A7). Briefly, compounds alone according to the invention were prepared in DMSO and spotted (2 μL each) on sterile polystyrene plates (Corning, 3788). Combinations of compounds and antibiotics dilutions were prepared in DMSO and spotted (1 μL each) on sterile polystyrene plates (Corning, 3788). Log phase bacterial suspensions were adjusted to a final density of 5·10^5 CFU/mL in cation-adjusted Mueller-Hinton broth (ca-MHB; Becton-Dickinson and Company) and added to each well (98 μL). Assays including Fosfomycin were supplemented with 25 μg/ml of Glucose-6-phosphate. Microplates were incubated for 16-20 h at 35° C. in ambient air. The MIC of the compounds was defined as the lowest concentration of said compounds that prevented bacterial growth as read by visual inspection. The MIC of ATB at each compound concentration was defined as the lowest concentration of ATB that prevented bacterial growth as read by visual inspection.

[2] = test system: ECL P99; type: cell-based, E. cloacae; details: ECL P99
Protocol: as §1

[3] = test system: PAE UFR90; type: cell-based, P. aeruginosa; details: PAE UFR90
Protocol: as §1

[4] = test system: PAE UFR48; type: cell-based, P. aeruginosa; details: PAE UFR48
Protocol: as §1

[5] = test system: PAE 105250; type: cell-based, P. aeruginosa; details: PAE 105250
Protocol: as §1

[6] = test system: SPN 49619; type: cell-based, S. pneumoniae; details: SPN 49619
Protocol: as §1

[7] = test system: ECO 190317; type: cell-based, E. coli; details: ECO 190317
Protocol: as §1

[8] = test system: ECO UFR39; type: cell-based, E. coli; details: ECO UFR39; with Example 13 at 8 μg/ml
Protocol: as §1

## CO/N=C(\C(=O)N[C@@H]1C(=O)N2C(C(=O)O)=C(COC(C)=O)CS[C@H]12)c1csc(N)n1 [CTX]
[1]; antibiotic alone
  MIC ATB alone: 2 µg/mL
[1]; with Example 1 @8 μg/ml
  MIC ATB combined with Example 1 @8 μg/ml: 2 µg/mL
[1]; with Example 1 at 8 μg/ml
  MIC ATB combined with Example 1 @8 μg/ml: 2 µg/mL
[1]; with Example 7 at 8 μg/ml
  MIC ATB combined with Example 7 @8 μgml: 1 µg/mL
[1]; with Example 11 at 8 μg/ml
  MIC ATB combined with Example 11 @8 μg/ml: <=0.031 μg/mL
[1]; with Example 13 at 8 μg/ml
  MIC ATB combined with Example 13 @8 μg/ml: 1 µg/mL
[1]; with Example 15 at 4 μg/ml
  MIC ATB combined with Example 15 @4 μgml: 0.5 µg/mL
[2]; with Example 1 @8 μg/ml
  MIC ATB combined with Example 1 @8 μg/ml: <0.031 µg/mL
[2]; with Example 1 at 8 μg/ml
  MIC ATB combined with Example 1 @8 μg/ml: <0.031 µg/mL
[2]; with Example 7 at 8 μg/ml
  MIC ATB combined with Example 7 @8 μgml: 0.063 µg/mL
[2]; with Example 13 at 8 μg/ml
  MIC ATB combined with Example 13 @8 μg/ml: 1 µg/mL
[2]; with Example 15 at 4 μg/ml
  MIC ATB combined with Example 15 @4 μgml: <=0.031 μg/mL
[3]; with Example 1 @8 μg/ml
  MIC ATB combined with Example 1 @8 μg/ml: <0.031 µg/mL
[3]; with Example 1 at 8 μg/ml
  MIC ATB combined with Example 1 @8 μg/ml: <0.031 µg/mL
[3]; with Example 7 at 8 μg/ml
  MIC ATB combined with Example 7 @8 μgml: >32 µg/mL
[3]; with Example 11 at 8 μg/ml
  MIC ATB combined with Example 11 @8 μg/ml: >32 µg/mL
[3]; with Example 14 at 8 μg/ml
  MIC ATB combined with Example 14 @8 μg/ml: >32 µg/mL
[3]; with Example 15 at 4 μg/ml
  MIC ATB combined with Example 15 @4 μgml: >32 µg/mL
[3]; with Example 16 at 4 μg/ml
  MIC ATB combined with Example 16 @4 μg/ml: >32 µg/mL
[4]; with Example 1 @8 μg/ml
  MIC ATB combined with Example 1 @8 μg/ml: <0.031 µg/mL
[4]; with Example 1 at 8 μg/ml
  MIC ATB combined with Example 1 @8 μg/ml: <0.031 µg/mL
[4]; with Example 7 at 8 μg/ml
  MIC ATB combined with Example 7 @8 μgml: >32 µg/mL
[4]; with Example 11 at 8 μg/ml
  MIC ATB combined with Example 11 @8 μg/ml: >32 µg/mL
[4]; with Example 12 at 8 μg/ml
  MIC ATB combined with Example 12 @8 μg/ml: >32 µg/mL
[4]; with Example 14 at 8 μg/ml
  MIC ATB combined with Example 14 @8 μg/ml: >32 µg/mL
[4]; with Example 15 at 4 μg/ml
  MIC ATB combined with Example 15 @4 μgml: >32 µg/mL
[4]; with Example 16 at 4 μg/ml
  MIC ATB combined with Example 16 @4 μg/ml: >32 µg/mL
[5]; with Example 1 @8 μg/ml
  MIC ATB combined with Example 1 @8 μg/ml: <0.031 µg/mL
[5]; with Example 1 at 8 μg/ml
  MIC ATB combined with Example 1 @8 μg/ml: <0.031 µg/mL
[5]; with Example 7 at 8 μg/ml
  MIC ATB combined with Example 7 @8 μgml: 32 µg/mL
[5]; with Example 11 at 8 μg/ml
  MIC ATB combined with Example 11 @8 μg/ml: 32 µg/mL
[5]; with Example 12 at 8 μg/ml
  MIC ATB combined with Example 12 @8 μg/ml: >32 µg/mL
[5]; with Example 14 at 8 μg/ml
  MIC ATB combined with Example 14 @8 μg/ml: >32 µg/mL
[5]; with Example 15 at 4 μg/ml
  MIC ATB combined with Example 15 @4 μgml: 32 µg/mL
[5]; with Example 16 at 4 μg/ml
  MIC ATB combined with Example 16 @4 μg/ml: >32 µg/mL
[6]; antibiotic alone
  MIC ATB alone: 0.063 µg/mL
[6]; with Example 1 @8 μg/ml
  MIC ATB combined with Example 1 @8 μg/ml: <=0.031 μg/mL
[6]; with Example 1 at 8 μg/ml
  MIC ATB combined with Example 1 @8 μg/ml: <=0.031 μg/mL
[6]; with Example 7 at 8 μg/ml
  MIC ATB combined with Example 7 @8 μgml: <=0.031 μg/mL
[6]; with Example 9 @4 μg/ml
  MIC ATB combined with Example 9 @4 μg/ml: <=0.031 μg/mL
[6]; with Example 9 at 4 μg/ml
  MIC ATB combined with Example 9 @4 μg/ml: <=0.031 μg/mL
[6]; with Example 11 at 8 μg/ml
  MIC ATB combined with Example 11 @8 μg/ml: <=0.031 μg/mL
[6]; with Example 12 at 8 μg/ml
  MIC ATB combined with Example 12 @8 μg/ml: <=0.031 μg/mL
[6]; with Example 13 at 8 μg/ml
  MIC ATB combined with Example 13 @8 μg/ml: <=0.031 μg/mL
[6]; with Example 14 at 8 μg/ml
  MIC ATB combined with Example 14 @8 μg/ml: <=0.031 μg/mL
[6]; with Example 15 at 4 μg/ml
  MIC ATB combined with Example 15 @4 μgml: <=0.031 μg/mL
[6]; with Example 16 at 4 μg/ml
  MIC ATB combined with Example 16 @4 μg/ml: <=0.031 μg/mL
[7]; with Example 1 @8 μg/ml
  MIC ATB combined with Example 1 @8 μg/ml: <0.031 µg/mL
[7]; with Example 1 at 8 μg/ml
  MIC ATB combined with Example 1 @8 μg/ml: <0.031 µg/mL
[7]; with Example 13 at 8 μg/ml
  MIC ATB combined with Example 13 @8 μg/ml: <0.031 µg/mL
[8]
  MIC ATB combined with Example 13 @8 μg/ml: <0.031 µg/mL
